Publication PMC6651387, “Fine-Tuning the Activation Mode of an 1,3-Indandione-Based Ruthenium(II)-Cymene Half-Sandwich Complex by Variation of Its Leaving Group” (Molecules, 2019)
Where two headings read alike, the source gives them in different places.

Tests used:
[1] = system: CH1/PA-1 (ovarian teratocarcinoma) cells; parameters: method as in PMID 25032896; settings: MTT assay, 96 h; cited from earlier work
[2] = system: A549 (non-small cell lung cancer) cells; parameters: method as in PMID 25032896; settings: MTT assay, 96 h; cited from earlier work
[3] = system: SW480 (colon cancer) cells; parameters: method as in PMID 25032896; settings: MTT assay, 96 h; cited from earlier work
[4] = system: SW480 cells; parameters: method as in PMID 27055943; settings: exposure time 2 h, platinum; cited from earlier work
[5] = MeOH, conventional desk lamp, UV-VIS 250–700 nm
Description: Light activation studies were performed on the same UV-VIS spectrometer. Fourty microliters of solutions (MeOH) were irradiated with a conventional desk lamp, and every 2.5–10 min (depending on progress) a wavelength scan (250–700 nm) was recorded.

[6] = system: HCT116 (colon cancer) cells; experiment: MTT antiproliferative assay, HCT116; type: cell-based, human; settings: exposure time 96 h, means ± standard deviations
Description: (§1) CH1/PA-1 (ovarian teratocarcinoma) cells were a generous gift from Lloyd R. Kelland (CRC Centre for Cancer Therapeutics, Institute of Cancer Research, Sutton, UK). A549 (non-small cell lung cancer), SW480, and HCT116 (both colon cancer) cells were kindly provided by the Institute of Cancer Research, Department of Medicine I, Medical University of Vienna, Austria. All cell lines were grown as monolayer cultures in Eagle’s MEM supplemented with L-glutamine (4 mM), sodium pyruvate (1 mM) and 1% (v/v) non-essential amino acid solution (all from Sigma-Aldrich) and 10% (v/v) heat-inactivated fetal calf serum (FCS, BioWest) in 75-cm^2 flasks (Starlab) at 37 °C under a humidified atmosphere containing 5% CO2 in air. […] After 24 h, test compounds were dissolved in DMSO (Fisher Scientific), serially diluted in complete MEM not to exceed a final DMSO content of 0.5% (v/v) and added in 100 μL per well. After 96 h, the drug-containing medium was replaced with 100 µL of RPMI 1640/MTT mixture, i. e., 6 parts of RPMI 1640 medium (Sigma-Aldrich; supplemented with 10% heat-inactivated fetal bovine serum and 4 mM L-glutamine), 1 part of MTT solution in phosphate-buffered saline (5 mg/mL; both from Sigma-Aldrich). After incubation for 4 h, the MTT-containing medium was replaced with 150 μL DMSO per well to dissolve the formazan product formed by viable cells. Optical densities at 550 nm (and at the reference wavelength of 690 nm) were measured with a microplate reader (ELx808, Bio-Tek). The IC50 values relative to untreated controls were interpolated from concentration–effect curves. At least three independent experiments were performed, each with triplicates per concentration level.

[7] = system: A549 (non-small cell lung cancer) cells; experiment: MTT antiproliferative assay, A549; type: cell-based, human; settings: exposure time 96 h, means ± standard deviations
Description: as §1

[8] = Lipophilicity by RP-UHPLC capacity factors (logkw, Φ0); type: physicochemical
From the text: It stands to reason that the higher the lipophilicity, the higher the cell accumulation; as far as passive diffusion is concerned, the higher efficiency with which normal cell function is compromised. As a consequence, lipophilicity is an important factor in drug development, described by the partition coefficient logP, which is routinely determined by the distribution of a compound in 1-octanol/water. However, 1-octanol, a solvent said to closely mimic the solubilizing behavior of cell membranes, forms emulsions with water. Additionally, the shake-flask method, seemingly easy, requires long sample preparation, has a low sample throughput, and lacks reproducibility, as it hinges on exact temperature control and consistent equilibration time allotted for every analyte. The time-consuming nature of this method may also lead to decomposition of the analyte. A concentration-, flow rate-, and column length-independent method is the determination of the capacity factor (k) via HPLC. The capacity factor is a measure for the equilibrium concentration between a polar phase (eluent) and an apolar phase (C18 column coating) and higher resemblance to the partition coefficient in […]. […] The percentage of methanol in the eluent at which logk is equal to zero is Φ0 [27, 28, 29].
The capacity factors k were determined with the use of an RP-UHPLC. The necessary chromatograms were recorded with a Dionex UltiMate 3000 RS UHPLC system (Thermo Fisher Scientific, Bedford, MA, USA) controlled by the Dionex Chromeleon 7.2 software. […] The capacity factors were then calculated as logk = log[(tR − t0)/t0], where tR and t0 are the retention times of the analyte and the dead time marker, respectively, at the respective MeOH:0.1% FA in water ratio. Every retention time was determined in isocratic mode for the different eluent ratios to obtain capacity factors in the linear range (−0.5 ≤ logk ≤ 1.5) in triplicate. A plot of logk against the % of the organic eluent yielded logkw (intercept) and S (slope). Φ0, the factor most closely resembling logP, was then determined as follows: Φ0 = −logkw/S [28].

[9] = system: SW480 (colon cancer) cells; experiment: MTT antiproliferative assay, SW480; type: cell-based, human; settings: exposure time 96 h, means ± standard deviations
Description: as §1

[10] = system: CH1/PA-1 (ovarian teratocarcinoma) cells; experiment: MTT antiproliferative assay, CH1/PA-1; type: cell-based, human; settings: exposure time 96 h, means ± standard deviations
Description: CH1/PA-1 (ovarian teratocarcinoma) cells were a generous gift from Lloyd R. Kelland (CRC Centre for Cancer Therapeutics, Institute of Cancer Research, Sutton, UK). A549 (non-small cell lung cancer), SW480, and HCT116 (both colon cancer) cells were kindly provided by the Institute of Cancer Research, Department of Medicine I, Medical University of Vienna, Austria. All cell lines were grown as monolayer cultures in Eagle’s MEM supplemented with L-glutamine (4 mM), sodium pyruvate (1 mM) and 1% (v/v) non-essential amino acid solution (all from Sigma-Aldrich) and 10% (v/v) heat-inactivated fetal calf serum (FCS, BioWest) in 75-cm^2 flasks (Starlab) at 37 °C under a humidified atmosphere containing 5% CO2 in air.
Antiproliferative activity of the compounds was determined with the colorimetric MTT assay (MTT = 3-(4,5-dimethyl-2-thiazolyl)-2,5-diphenyl-2H-tetrazolium bromide). CH1/PA-1, HCT116, SW480, and A549 cells with cell numbers of 1 × 10^3, 1.5 × 10^3, 2 × 10^3, and 3 × 10^3, respectively, were seeded in 100 μL per well into 96-well microculture plates (Starlab). After 24 h, test compounds were dissolved in DMSO (Fisher Scientific), serially diluted in complete MEM not to exceed a final DMSO content of 0.5% (v/v) and added in 100 μL per well. After 96 h, the drug-containing medium was replaced with 100 µL of RPMI 1640/MTT mixture, i. e., 6 parts of RPMI 1640 medium (Sigma-Aldrich; supplemented with 10% heat-inactivated fetal bovine serum and 4 mM L-glutamine), 1 part of MTT solution in phosphate-buffered saline (5 mg/mL; both from Sigma-Aldrich). After incubation for 4 h, the MTT-containing medium was replaced with 150 μL DMSO per well to dissolve the formazan product formed by viable cells. Optical densities at 550 nm (and at the reference wavelength of 690 nm) were measured with a microplate reader (ELx808, Bio-Tek). The IC50 values relative to untreated controls were interpolated from concentration–effect curves. At least three independent experiments were performed, each with triplicates per concentration level.

[11] = system: SW480 cells; experiment: Cellular accumulation by ICP-MS quantification of ruthenium (or platinum); type: cell-based, human; settings: 50 µM, exposure time 2 h, ICP-MS of ruthenium
Description: Ruthenium accumulation was measured by means of inductively coupled plasma mass spectrometry (ICP-MS) upon 2 h exposure of SW480 cells to 50 µM of each compound.
Cellular accumulation of the compounds was studied based on a previously described method with modifications as follows: SW480 cells with a number of 1.8 × 10^5 per well were seeded into 12-well plates in aliquots of 1 mL complete MEM and incubated at 37 °C for 24 h. Then, cells were exposed for 2 h at 37 °C to 50 μM solutions of the test compounds (containing 0.5% DMSO) in 500 µL of fresh complete MEM upon exchange of the medium. Afterwards, cells were washed three times with PBS, and lyzed with 0.4 mL sub-boiled HNO3 per well for 1 h at room temperature. Ruthenium content was quantified by ICP-MS using an Agilent 7500ce quadrupole ICP-MS instrument (Agilent Technologies, Waldbronn, Germany) equipped with a CETAC ASX-520 autosampler (Nebraska, USA) and a MicroMist nebulizer. Ruthenium and indium standards were obtained from CPI International (Amsterdam, The Netherlands). The instrument was equipped with nickel cones and operated at an RF power of 1560 W, with argon as the plasma gas (15 L/min), carrier gas (1.0–1.1 L/min) and make-up gas (0.1–0.2 L/min). The Agilent MassHunter software package (Workstation Software, Version B.01.01, Build 123.11, Patch 4, 2012) was used for data processing. Results are based on at least three independent experiments, each comprising triplicate samples. The instrument was tuned on a daily basis for maximum sensitivity and doubly charged species as well as oxide rates were <5%.

| Compound | IC50 [1] [µM] | IC50 [2] [µM] | IC50 [3] [µM] | cellular accumulation, fg Ru or Pt/Cell [4] | time until no more change upon light irradiation (completion of the reaction) [5] [min] | IC50 [6] [µM] | IC50 [7] [µM] | Intercept logkw ([8]; RP-UHPLC, MeOH/0.1% formic acid in water, 25 °C, logk extrapolated to 100% water) | Φ0 ([8]; percentage of methanol in the eluent at which logk is zero, Φ0 = −logkw/S) | Slope S ([8]; slope of logk against % organic eluent (MeOH)) | IC50 [9] [µM] | IC50 [10] [µM] | cellular accumulation, fg Ru or Pt/Cell [11] |
| --- | --- | --- | --- | --- | --- | --- | --- | --- | --- | --- | --- | --- | --- |
| N.N.[Cl][Pt][Cl] [Cisplatin] | 0.077 ± 0.006 | 6.2 ± 1.2 | 3.3 ± 0.2 | 12 ± 2 fg Ru or Pt/Cell |  |  |  |  |  |  |  |  |  |
| Cc1ccc(C(C)C)cc1.F[P-](F)(F)(F)(F)F.O=C1C(=C(NCc2ccccc2)[O][Ru+])C(=O)c2ccccc21.c1ccncc1 [1f] |  |  |  |  | 75 | 20.2 ± 6.4 | 22.1 ± 3.2 | 5.25 | 62.07 | −0.0845 | 6.3 ± 1.1 | 8.2 ± 2 | 231 ± 93 fg Ru or Pt/Cell |
